US7750017B2, “Heterocycles” (Bayer Schering Pharma Aktiengesellschaft, priority 2004, dated 2010)
pIC50: −log10 of the molar value. Counter-ions that a name gives are not always drawn.

Assays:
[1] = test system: A431 cells [human epidermoid carcinoma, overexpressing HER1 (EGFR, ErbB1)]; experiment: In vitro tumor cell proliferation assay (Cell Titer-Glo luminescent cell viability), A431 cells; assay type: cell-based; settings: A-431, 72 h, 72 hours of drug exposure, Cell Titer-Glo readout, read-out: IC50, anti-proliferative activity in A431 cells
Text: (§1) The utility of the compounds of the present invention can be illustrated, for example, by their activity in vitro in the in vitro tumor cell proliferation assay described below. The link between activity in tumor cell proliferation assays in vitro and anti-tumor activity in the clinical setting has been very well established in the art.
(§2) The following assay is one of the methods by which compound activity relating to treatment of the disorders identified herein can be determined.
(§3) The tumor cell proliferation assay used to test the compounds of the present invention involves a readout called Cell Titer-Glow® Luminescent Cell Viability Assay developed by Promega® (Cunningham, B A “A Growing Issue: Cell Proliferation Assays, Modern kits ease quantification of cell growth” The Scientist 2001, 15(13), 26, and Crouch, S P et al., “The use of ATP bioluminescence as a measure of cell proliferation and cytotoxicity” Journal of Immunological Methods 1993, 160, 81-88), that measures inhibition of cell proliferation. Generation of a luminescent signal corresponds to the amount of ATP present, which is directly proportional to the number of metabolically active (proliferating) cells.
(§4) A431 cells [human epidermoid carcinoma, ATCC # […], overexpressing HER1 (EGFR, ErbB1)] and BT474 [human breast carcinoma, ATCC # CRL-1555, overexpressing HER2 (ErbB2)] were plated at a density of 2.5×10^3 cells/well in 96 well black-clear bottom tissue culture plates in RPMI media with 10% Fetal Bovine Serum and incubated at 37° C. Twenty-four hours later, test compounds are added at a final concentration range from as high 100 μm to as low 64 pM depend on the activities of the tested compounds in serial dilutions at a final DMSO concentration of 0.1%. Cells were incubated for 72 hours at 37° C. in complete growth media after addition of the test compound. After 72 hours of drug exposure, the plates were equilibrated to room temperature for approximately 30 min. Then, using a Promega Cell Titer Glo Luminescent® assay kit, lysis buffer containing 100 microliters of the enzyme luciferase and its substrate, luciferin mixture, was added to each well. The plates were mixed for 2 min on orbital shaker to ensure cell lysis and incubated for 10 min at room temperature to stabilize luminescence signal. The samples were read on VICTOR 2 using Luminescence protocol, and analyzed with Analyze5 software to generate IC50 values.

[2] = test system: BT474 [human breast carcinoma, overexpressing HER2 (ErbB2)]; experiment: In vitro tumor cell proliferation assay (Cell Titer-Glo luminescent cell viability), BT474 cells; assay type: cell-based; settings: BT-474, 72 h, 72 hours of drug exposure, Cell Titer-Glo readout, read-out: IC50, anti-proliferative activity in BT474 cells
Text: as §1, §2, §3, §4

| SMILES | pIC50 [1] | pIC50 [2] |
| --- | --- | --- |
| CN1CCN(CCc2ccc3c(c2)sc2ncnc(Nc4ccc5c(cnn5Cc5cccc(F)c5)c4)c23)CC1 [Example 128, N-[1-(3-fluorobenzyl)-1H-indazol-5-yl]-7-[2-(4-methylpiperazin-1-yl)ethyl][1]benzothieno[2,3-d] pyrimidin-4-amine] | ≥ 5.30 | ≥ 6.30 |
| OC[C@H](O)c1ccc2c(c1)sc1ncnc(Nc3ccc4c(cnn4Cc4cccc(F)c4)c3)c12 [Example 117, (1R)-1-(4-{[1-(3-fluorobenzyl)-1H-indazol-5-yl]amino}[1]benzothieno [2,3-d]pyrimidin-7-yl)ethane-1,2-diol] | ≥ 5.30 | ≥ 6.30 |
| COCCNCCc1ccc2c(c1)sc1ncnc(Nc3ccc(OCc4ccccn4)c(Cl)c3)c12 [Example 86, N-[3-chloro-4-(pyridin-2-ylmethoxy)phenyl]-7-{2-[(2-methoxyethyl)amino]ethyl}[1] benzothieno[2,3-d]pyrimidin-4-amine trifluoroacetate] | ≥ 5.30 | ≥ 6.30 |
| Fc1cccc(COc2ccc(Nc3ncnc4sc5cc(N6CCOCC6)ccc5c34)cc2Cl)c1 [Example 44, [3-Chloro-4-(3-fluoro-benzyloxy)-phenyl]-(7-morpholin-4-yl-benzo[4,5]thieno[2,3-d]pyrimidin-4-yl)-amine] | ≥ 4.30 | ≥ 6.30 |
| Oc1ccc2c(c1)sc1ncnc(Nc3ccc(OCc4cccc(F)c4)c(Cl)c3)c12 [Example 34, 4-({3-chloro-4-[(3-fluorobenzyl)oxy]phenyl}amino)[1]benzothieno[2,3-d]pyrimidin-7-ol] | ≥ 4.30 | ≥ 6.30 |
| CN1CCN(c2ccc3c(c2)sc2ncnc(Nc4ccc(OCc5ccccn5)c(Cl)c4)c23)CC1 [Example 77, N-[3-chloro-4-(pyridin-2-ylmethoxy)phenyl]-7-(4-methylpiperazin-1-yl)[1]benzothieno [2,3-d]pyrimidin-4-amine trifluoroacetate] | ≥ 5.30 | ≥ 6.30 |
| COCCN(CCOC)C(=O)Cc1ccc2c(c1)sc1ncnc(Nc3ccc(OCc4ccccn4)c(Cl)c3)c12 [Example 101, 2-(4-{[3-chloro-4-(pyridin-2-ylmethoxy)phenyl]amino}[1]benzothieno[2,3-d]pyrimidin-7-yl)-N,N-bis (2-methoxyethyl)acetamide] | ≥ 5.30 | ≥ 5.30 |
| Clc1cc(Nc2ncnc3sc4cc(CCN5CCOCC5)ccc4c23)ccc1OCc1ccccn1 [Example 84, N-[3-chloro-4-(pyridin-2-ylmethoxy)phenyl]-7-(2-morpholin-4-ylethyl)[1]benzothieno[2,3-d] pyrimidin-4-amine] | ≥ 4.30 | ≥ 6.30 |
| OC[C@@H](O)c1ccc2c(c1)sc1ncnc(Nc3ccc(OCc4ccccn4)c(Cl)c3)c12 [Example 74, (1S)-1-(4-{[3-chloro-4-(pyridin-2-ylmethoxy)phenyl]amino}[1]benzothieno[2,3-d]pyrimidin-7-yl)ethane-1,2-diol] | ≥ 4.30 | ≥ 6.30 |
| Fc1cccc(Cn2ncc3cc(Nc4ncnc5sc6cc(N7CCNCC7)ccc6c45)ccc32)c1 [Example 119, N-[1-(3-fluorobenzyl)-1H-indazol-5-yl]-7-piperazin-1-yl[1]benzothieno [2,3-d]pyrimidin-4-amine] | ≥ 5.30 | ≥ 6.30 |
| CCN1CCN(C(=O)C(O)C(O)c2ccc3c(c2)sc2ncnc(Nc4ccc(OCc5cccc(F)c5)c(Cl)c4)c23)CC1 (centres unmarked) [Example 56, 1-[4-({3-chloro-4-[(3-fluorobenzyl)oxy]phenyl}amino)[1]benzothieno[2,3-d]pyrimidin-7-yl]-3-(4-ethylpiperazin-1-yl)-3-oxopropane-1,2-diol] | ≥ 4.30 | ≥ 5.30 |
| CS(=O)(=O)CCNC(=O)C(O)C(O)c1ccc2c(c1)sc1ncnc(Nc3ccc(OCc4cccc(F)c4)c(Cl)c3)c12 (centres unmarked) [Example 60, 3-[4-({3-chloro-4-[(3-fluorobenzyl)oxy]phenyl}amino) [1]benzothieno[2,3-d]pyrimidin-7-yl]-2,3-dihydroxy-N-[2-(methylsulfonyl)ethyl]propanamide] | ≥ 4.30 | ≥ 6.30 |
| Fc1cccc(COc2ccc(Nc3ncnc4sc5cc(CCN6CCCC6)ccc5c34)cc2Cl)c1 [Example 11, N-{3-chloro-4-[(3-fluorobenzyl)oxy]phenyl}-7-(2-pyrrolidin-1-ylethyl)[1] benzothieno[2,3-d]pyrimidin-4-amine] | ≥ 5.30 | ≥ 6.30 |
| O=C(O)Cc1ccc2c(c1)sc1ncnc(Nc3ccc4c(cnn4Cc4cccc(F)c4)c3)c12 [Example 121, (4-{[1-(3-fluorobenzyl)-1H-indazol-5-yl]amino}[1]benzothieno[2,3-d]pyrimidin-7-yl)acetic acid] | ≥ 4.30 | ≥ 5.30 |
| CN1CCN(C(=O)Cc2ccc3c(c2)sc2ncnc(Nc4ccc(OCc5cscn5)c(Cl)c4)c23)CC1 [Example 138, N-[3-chloro-4-(1,3-thiazol-4-ylmethoxy)phenyl]-7-[2-(4-methylpiperazin-1-yl)-2-oxoethyl][1]benzothieno[2,3-d] pyrimidin-4-amine] | ≥ 5.30 | ≥ 5.30 |
| CN1CCN(CCc2ccc3c(c2)sc2ncnc(Nc4ccc(OCc5cccc(F)c5)c(Cl)c4)c23)CC1 [Example 21, N-{3-chloro-4-[(3-fluorobenzyl)oxy]phenyl}-7-[2-(4-methylpiperazin-1-yl)ethyl][1] benzothieno[2,3-d]pyrimidin-4-amine] | ≥ 5.30 | ≥ 6.30 |
| OCCc1ccc2c(c1)sc1ncnc(Nc3ccc4c(cnn4Cc4cccc(F)c4)c3)c12 [Example 127, 2-(4-{[1-(3-fluorobenzyl)-1H-indazol-5-yl]amino}[1]benzothieno [2,3-d]pyrimidin-7-yl)ethanol] | ≥ 5.30 | ≥ 6.30 |
| CS(=O)(=O)CCNC(=O)Cc1ccc2c(c1)sc1ncnc(Nc3ccc4c(cnn4Cc4cccc(F)c4)c3)c12 [Example 122, 2-(4-{[1-(3-fluorobenzyl)-1H-indazol-5-yl]amino}[1]benzothieno[2,3-d]pyrimidin-7-yl)-N-[2-(methylsulfonyl)ethyl] acetamide] | ≥ 5.30 | ≥ 6.30 |
| Fc1cccc(Cn2ncc3cc(Nc4ncnc5sc6cc(N7CCOCC7)ccc6c45)ccc32)c1 [Example 120, N-[1-(3-fluorobenzyl)-1H-indazol-5-yl]-7-morpholin-4-yl[1] benzothieno[2,3-d]pyrimidin-4-amine] | ≥ 4.30 | ≥ 6.30 |
| O=C(Cc1ccc2c(c1)sc1ncnc(Nc3ccc(OCc4cscn4)c(Cl)c3)c12)N1CCOCC1 [Example 137, N-[3-chloro-4-(1,3-thiazol-4-ylmethoxy)phenyl]-7-(2-morpholin-4-yl-2-oxoethyl)[1]benzothieno [2,3-d]pyrimidin-4-amine] | ≥ 4.30 | ≥ 5.30 |
| CN(C)CCNC(=O)CCc1ccc2c(c1)sc1ncnc(Nc3ccc(OCc4cccc(F)c4)c(Cl)c3)c12 [Example 70, 3-[4-({3-chloro-4-[(3-fluorobenzyl)oxy]phenyl}amino)[1]benzothieno[2,3-d]pyrimidin-7-yl]-N-[2-(dimethylamino)ethyl] propanamide] | ≥ 5.30 | ≥ 5.30 |
| OCCNCCc1ccc2c(c1)sc1ncnc(Nc3ccc(OCc4ccccn4)c(Cl)c3)c12 [Example 88, 2-{[2-(4-{[3-chloro-4-(pyridin-2-ylmethoxy)phenyl]amino}[1]benzothieno[2,3-d]pyrimidin-7-yl)ethyl]amino}ethanol trifluoroacetate (salt)] | ≥ 4.30 | ≥ 6.30 |
